Experimental data as given in ChEMBL document CHEMBL3621125, “Click-tailed coumarins with potent and selective inhibitory action against the tumor-associated carbonic anhydrases IX and XII” (Bioorg Med Chem, 2015).

Tests used:
Carbonic anhydrase 2 = Carbonic anhydrase 2 (Homo sapiens, UniProt P00918); assay: Inhibition of human carbonic anhydrase 2 incubated for 6 hrs by stopped flow carbon-di-oxide hydrase assay
Carbonic anhydrase 1 = Carbonic anhydrase 1 (Homo sapiens, UniProt P00915); assay: Inhibition of human carbonic anhydrase 1 incubated for 6 hrs by stopped flow carbon-di-oxide hydrase assay
Carbonic anhydrase 9 = Carbonic anhydrase 9 (Homo sapiens, UniProt Q16790); assay: Inhibition of human carbonic anhydrase 9 incubated for 6 hrs by stopped flow carbon-di-oxide hydrase assay

Chain of Carbonic anhydrase 1 (P00915 whole entry): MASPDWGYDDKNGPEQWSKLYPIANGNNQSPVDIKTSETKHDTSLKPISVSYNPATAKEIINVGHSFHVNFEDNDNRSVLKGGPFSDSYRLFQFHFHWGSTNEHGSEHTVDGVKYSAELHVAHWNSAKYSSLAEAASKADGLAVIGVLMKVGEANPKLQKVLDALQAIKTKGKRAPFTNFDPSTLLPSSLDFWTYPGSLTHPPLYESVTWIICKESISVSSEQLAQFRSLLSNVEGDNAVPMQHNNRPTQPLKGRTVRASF

Ki (Carbonic anhydrase 2)	Ki (Carbonic anhydrase 1)	Ki (Carbonic anhydrase 9)	Compound
> 10000 nM	> 10000 nM	24.5 nM	O=c1ccc2ccc(OCc3cn(-c4ccccc4)nn3)cc2o1
> 10000 nM		24.9 nM	O=c1ccc2ccc(OCc3cn(-c4cccc(F)c4)nn3)cc2o1
> 10000 nM	> 10000 nM	31.2 nM	O=c1ccc2ccc(OCc3cn(-c4cccc(Cl)c4)nn3)cc2o1
> 10000 nM	> 10000 nM	27.5 nM	O=c1ccc2ccc(OCc3cn(-c4cccc(Br)c4)nn3)cc2o1
> 10000 nM		23.6 nM	COc1cccc(-n2cc(COc3ccc4ccc(=O)oc4c3)nn2)c1
> 10000 nM		24 nM	O=c1ccc2ccc(OCc3cn(-c4ccc(F)cc4)nn3)cc2o1
> 10000 nM			O=c1ccc2ccc(OCc3cn(-c4ccc(C(F)(F)F)cc4)nn3)cc2o1
> 10000 nM		26.9 nM	O=c1ccc2ccc(OCc3cn(-c4ccc(O)cc4)nn3)cc2o1
99.6 nM		28.8 nM	O=C(O)c1ccc(-n2cc(COc3ccc4ccc(=O)oc4c3)nn2)cc1
> 10000 nM	> 10000 nM	22.8 nM	Cc1cc(=O)oc2cc(-n3cc(COc4ccc5ccc(=O)oc5c4)nn3)ccc12
> 10000 nM		33.1 nM	Cc1cc(=O)oc2cc(-n3cc(COc4ccccc4)nn3)ccc12
> 10000 nM			Cc1cc(=O)oc2cc(-n3cc(CSc4ccccc4)nn3)ccc12
9740 nM		34.4 nM	Cc1cc(=O)oc2cc(-n3cc(CNc4ccccc4)nn3)ccc12

Compound	Ki (Carbonic anhydrase 2)	Ki (Carbonic anhydrase 1)	Ki (Carbonic anhydrase 9)
NS(=O)(=O)c1ccc(-n2cc(COc3ccc4ccc(=O)oc4c3)nn2)cc1	> 10000 nM		14.3 nM
